# Key:
# [1] = test system: BLK (FAM83A tyrosine phosphorylation); test: BLK-mediated FAM83A tyrosine phosphorylation in HEK293T cells; format: cell-based; conditions: 10 μM; HEK293T with or without BLK overexpression; n = 3
# From the text: Cell lysates were used for IP and western blotting with the indicated antibodies (n = 3). f Level of total tyrosine phosphorylation of Flag-tagged FAM83A and its Y138A mutant in HEK293T cells after BLK kinase knockdown using two specific small interfering RNAs (siBLK#1 and siBLK#2). Cell lysates were used for IP and western blotting with the indicated antibodies (n = 3). g, h Level of total tyrosine phosphorylation of Flag-tagged FAM83A and its Y138A mutant in HEK293T cells with or without BLK kinase overexpression and saracatinib (BLK inhibitor, 10 μM)/PP2 (LCK or FYN inhibitor, 10 μM) treatment. Cell lysates were used for IP and western blotting with the indicated antibodies (n = 3). i The BLK kinases was obtained from the immunoprecipitate of HEK293T cell lysates that transfected with either HA-tagged BLK wild-type, BLK kinase-dead mutant (Y389A) or BLK constitutive activated mutant with the deletion of the C-terminal auto-inhibitory domain (BLK ΔC) using HA tag antibody. Then the BLK kinases were incubated with the in vitro purified GST-tagged FAM83A protein at 30 °C for 30 min with or without BLK inhibitor saracatinib, and then the reaction products were subjected to western blotting assay (n = 3)
# Immunoprecipitation and Western blotting were performed as described previously.[35] GAPDH protein levels were used as loading controls. […]
# [2] = test system: pancreatic cancer stem cells (PaCSCs), primary PDAC cultures; conditions: primary PDAC cultures from patient-derived xenografts; ref not given; cited from earlier work
# From the text: Intricate communication between pancreatic cancer cells and their surrounding environment is driven by a dynamic signaling network of cellular and matrix remodeling enzymes, cytokines, chemokines, and growth factors, which collectively promote tumor growth and treatment resistance. The non-receptor SRC kinase family signaling network is increasingly recognized as a key player in pancreatic tumorigenesis.[38],[39] Treatment of primary PDAC cultures established from patient-derived xenografts with dasatinib or PP2 reduced the clonogenic, self-renewal, and tumor-initiating capacity of pancreatic ...
# [3] = test system: PANC-1 xenograft tumor (FAM83A re-expression); test: Mouse xenograft of FAM83A re-expressing PANC-1 cells, Wnt inhibitor; format: in vivo, nude mice (human PANC-1 cells); conditions: 20 mg/kg intravenous (Fig. 6 legend) or 50 mg/kg intraperitoneal twice a week (methods); n = 6 or 5
# Protocol: The Wnt inhibitor XAV939 (20 mg/kg) was intravenously injected into the caudal vein of the nude mice one week later after xenograft formation. c Growth curve showing the changes in the tumor volume in mice in different groups from the injection (n = 6 or 5). d Weight of the excised tumors in each group (n = 6 or 5). e, f Representative images of lung and colon metastasis of the nude mice model that tail intravenous injected with PANC-1 cells stably expressed Flag-tagged wild-type FA[MUT], [MUT], or [MUT] mutants were shown. g The number of lung or colon metastasis was quantified per field (n = 5). h, i Representative images and quantification of the soft agarose and plate colony formation assays of PANC-1 cells stably expressed Flag-tagged wild-type FA[MUT], [MUT], or [MUT] mutants (n = 3). j, k Representative images and quantification of the transwell assays without matrigel of PANC-1 cells stably expressed Flag-tagged wild-type FA[MUT], [MUT] or [MUT] mutants (n = 3). l Representative H&E staining images and immunohistochemical images of Ki67, C-myc, and AXIN2 expression in excised tumors tissues. *P < 0.05; **P < 0.01; ***P < 0.001. […] The length and width of the mouse xenograft tumors were measured every 5 days with calipers, and tumor volume (V) was calculated with the following formula: V = [(length × width × width)/2]. […]
Compound,FAM83A tyrosine phosphorylation [1],"clonogenic, self-renewal, and tumor-initiating capacity of PaCSCs [2]",xenograft tumor size [3]
CC(C)(C)n1nc(-c2ccc(Cl)cc2)c2c(N)ncnc21 [PP2],not LYN kinase inhibitor PP2,"reduced the clonogenic, self-renewal, and tumor-initiating capacity of pancreatic cancer stem cells",
Oc1nc(-c2ccc(C(F)(F)F)cc2)nc2c1CSCC2 [XAV939],,,inhibits the xenograft tumor size mediated by FAM83A re-expression
Cc1nc(Nc2ncc(C(=O)Nc3c(C)cccc3Cl)s2)cc(N2CCN(CCO)CC2)n1 [dasatinib],,"reduced the clonogenic, self-renewal, and tumor-initiating capacity of pancreatic cancer stem cells",
CN1CCN(CCOc2cc(OC3CCOCC3)c3c(Nc4c(Cl)ccc5c4OCO5)ncnc3c2)CC1 [saracatinib],could be reduced by the BLK kinase inhibitor saracatinib,,
